# Experiments:
# [1] = tested on: nuclear acetyltransferase; assay: Nuclear OAADPr acetyltransferase (OAADPr-metabolizing) activity in HEK-293 nuclear extract; format: biochemical; details: 100 μM puromycin, 60 min
# Description: Shown is the development of whole cell currents over time in TRPM2-expressing HEK-293 cells. Bath solution was standard ringer's, and pipette solution was Cs-based and included 10 mM EGTA to buffer intracellular Ca^2+ to 10 nM. The patch pipette contained various concentrations of (FIG. 1a) ADPr, (FIG. 1b) OAADPr (FIG. 1c) OAADPr and puromycin as indicated in the figure. FIG. 1d.) Cytoplasmic OAADPr esterase activity is inhibited by puromycin. 200 μM O-[^3H]AADPr and 0-100 μM puromycin were added to cytoplasmic HEK-293 extract for 30 min. Percent hydrolysis of O-[^3H]AADPr to [^3H]acetate was measured as described hereinbelow. FIG. 1e.) Nuclear OAADPr acetyltransferase activity is not inhibited by puromycin. HEK-293 nuclear extract was incubated with 200 μM O-[^3H]AADPr in the presence or absence of 100 μM puromycin for 60 min. The reactions were quenched and resolved by HPLC. The radioactivity in collected fractions was determined by liquid scintillation counting. FIGS. 1f-g.) In vivo detection of OAADPr. […]
# Cytoplasmic and nuclear extracts were prepared from HEK-293 cells as previously described (22). […] Aliquots of the supernatant containing [^3H]acetate were removed and analyzed by liquid scintillation counting. […] Radioactivity in each elution fraction was measured by liquid scintillation counting.
# TRPM2 channel = target: T1, TRPM2 channel (Homo sapiens, UniProt O94759); assay: Whole cell patch clamp, TRPM2 channel gating in tet-induced TRPM2-expressing HEK-293 cells; format: cell-based
# T1 construct: expressed in transfected cells; host or cells: tetracycline-inducible HEK-293
# Description: Shown is the development of whole cell currents over time in TRPM2-expressing HEK-293 cells. Bath solution was standard ringer's, and pipette solution was Cs-based and included 10 mM EGTA to buffer intracellular Ca^2+ to 10 nM. The patch pipette contained various concentrations of (FIG. 1a) ADPr, (FIG. 1b) OAADPr (FIG. 1c) OAADPr and puromycin as indicated in the figure. FIG. 1d.) Cytoplasmic OAADPr esterase activity is inhibited by puromycin. 200 μM O-[^3H]AADPr and 0-100 μM puromycin were added to cytoplasmic HEK-293 extract for 30 min. Percent hydrolysis of O-[^3H]AADPr to [^3H]acetate was measured as described hereinbelow. FIG. 1e.) Nuclear OAADPr acetyltransferase activity is not inhibited by puromycin. HEK-293 nuclear extract was incubated with 200 μM O-[^3H]AADPr in the presence or absence of 100 μM puromycin for 60 min. The reactions were quenched and resolved by HPLC. The radioactivity in collected fractions was determined by liquid scintillation counting. FIGS. 1f-g.) In vivo detection of OAADPr. Mass spectrum of HEK-293 generated OAADPr (peak m/z of 602.0894; the theoretical m/z for OAADPr is 602.0895) after puromycin treatment, with authentic [^13C]-OAADPr (peak m/z of 603.0851 and isotopic distribution of 604.0878 and 605.0928) as a standard. Peak 599.3691 is from the matrix.
# Patch clamp electrophysiology was performed as previously described (23). Briefly, cells were patch clamped in the whole cell configuration at 25° C. using pipettes with resistances ranging from 2-3 MOhms. Currents were recorded on an EPC9 patch clamp amplifier with automatic capacitance compensation using a protocol generating a 50 msec voltage ramp from −100 to +100 mv every two seconds at a holding potential of 0 mv (appropriately corrected for liquid junction potential). Bath solution included 150 mM NaCl, 2.8 mM KCl, 5 mM CsCl, 1 mM CaCl2, 2 mM MgCl2, and 10 mM Hepes (pH 7.2). Pipette solution included 135 mM CsGlutamate, 1 mM MgCl2, 8 mM NaCl, 10 mM Hepes (pH 7.2), and 10 mM EGTA. […]
# [2] = tested on: TRPM2-expressing HEK-293 cells; assay: Cell viability assay (calcein fluorescence), tet-inducible TRPM2 HEK-293 cells; format: cell-based
# Description: Shown are HEK-293 cells (closed diamond) and HEK-293 cells stably transfected with a tet-controlled TRPM2 construct in the presence (open squares) or absence of (open diamonds) tetracycline. […] TRPM2-expressing HEK-293 cells were grown in complete DMEM media and 1 μg/ml tetracycline until 80-90% confluent. One set of cells were re-fed with the same complete media (closed diamonds) and the other set of cells were rinsed with PBS and fed with modified media containing 1 μg/ml tetracycline, 5 mM EGTA and without calcium chloride (open squares). […] HEK-293 (close diamond) and TRPM2 expressing HEK-293 cells in the absence (open diamond) or presence of (closed square) tetracycline were exposed to 0-10 μg/ml cycloheximide for 16 h. Cell viability was determined as described in (a).
# TRPM2-expressing HEK-293 cells were exposed to 0-50 μM puromycin for 16 h in the presence (open diamond) or absence (closed diamond) of 500 μM nicotinamide. […] TRPM2-expressing HEK-293 cells were exposed to 0-50 μM puromycin for 16 h in the presence (open diamond) or absence (closed diamond) of 1.5 mM 3-aminobenzamide. Cell survival was determined as described in (a).
# HEK-293 and tetracycline (tet)-inducible HEK-293 TRPM2-expressing cells (23) were cultured in DMEM and 10% FBS at 37° C., 5% CO2. Media used to culture tet-inducible HEK-293 cells was supplemented with blasticidin (5 μg ml^−1; Invitrogen) and zeocin (0.4 mg/ml; Invitrogen). To induce expression of TRPM2 in recombinant HEK-293 cells, tetracycline was added to the media at 1 μg ml^−1 (Invitrogen) 24 h prior to experiments. The CRI-G1 rat β-islet tumor cell line was obtained from EACC and cultured in DMEM, 10% FBS and 2 mM glutamine.
# HEK-293, tet-inducible HEK-293, and CRI-G1 cells were seeded into 6 well plates at a density of 500,000 cells per well. When cells were 50-70% confluent, puromycin was added to the media at various concentrations for 16 hours. Cell monolayers were rinsed with PBS, after which 0.5 ml of 2 μM calcein in PBS was added directly to the well for 10-20 minutes. Calcein is retained in living, but not dead cells, where it undergoes catalytic conversion into a fluorescent compound Fluorescence in each well was measured in a microplate reader using excitation and emission filters at 485/530 nm, respectively.
# T1 sequence (O94759 whole entry): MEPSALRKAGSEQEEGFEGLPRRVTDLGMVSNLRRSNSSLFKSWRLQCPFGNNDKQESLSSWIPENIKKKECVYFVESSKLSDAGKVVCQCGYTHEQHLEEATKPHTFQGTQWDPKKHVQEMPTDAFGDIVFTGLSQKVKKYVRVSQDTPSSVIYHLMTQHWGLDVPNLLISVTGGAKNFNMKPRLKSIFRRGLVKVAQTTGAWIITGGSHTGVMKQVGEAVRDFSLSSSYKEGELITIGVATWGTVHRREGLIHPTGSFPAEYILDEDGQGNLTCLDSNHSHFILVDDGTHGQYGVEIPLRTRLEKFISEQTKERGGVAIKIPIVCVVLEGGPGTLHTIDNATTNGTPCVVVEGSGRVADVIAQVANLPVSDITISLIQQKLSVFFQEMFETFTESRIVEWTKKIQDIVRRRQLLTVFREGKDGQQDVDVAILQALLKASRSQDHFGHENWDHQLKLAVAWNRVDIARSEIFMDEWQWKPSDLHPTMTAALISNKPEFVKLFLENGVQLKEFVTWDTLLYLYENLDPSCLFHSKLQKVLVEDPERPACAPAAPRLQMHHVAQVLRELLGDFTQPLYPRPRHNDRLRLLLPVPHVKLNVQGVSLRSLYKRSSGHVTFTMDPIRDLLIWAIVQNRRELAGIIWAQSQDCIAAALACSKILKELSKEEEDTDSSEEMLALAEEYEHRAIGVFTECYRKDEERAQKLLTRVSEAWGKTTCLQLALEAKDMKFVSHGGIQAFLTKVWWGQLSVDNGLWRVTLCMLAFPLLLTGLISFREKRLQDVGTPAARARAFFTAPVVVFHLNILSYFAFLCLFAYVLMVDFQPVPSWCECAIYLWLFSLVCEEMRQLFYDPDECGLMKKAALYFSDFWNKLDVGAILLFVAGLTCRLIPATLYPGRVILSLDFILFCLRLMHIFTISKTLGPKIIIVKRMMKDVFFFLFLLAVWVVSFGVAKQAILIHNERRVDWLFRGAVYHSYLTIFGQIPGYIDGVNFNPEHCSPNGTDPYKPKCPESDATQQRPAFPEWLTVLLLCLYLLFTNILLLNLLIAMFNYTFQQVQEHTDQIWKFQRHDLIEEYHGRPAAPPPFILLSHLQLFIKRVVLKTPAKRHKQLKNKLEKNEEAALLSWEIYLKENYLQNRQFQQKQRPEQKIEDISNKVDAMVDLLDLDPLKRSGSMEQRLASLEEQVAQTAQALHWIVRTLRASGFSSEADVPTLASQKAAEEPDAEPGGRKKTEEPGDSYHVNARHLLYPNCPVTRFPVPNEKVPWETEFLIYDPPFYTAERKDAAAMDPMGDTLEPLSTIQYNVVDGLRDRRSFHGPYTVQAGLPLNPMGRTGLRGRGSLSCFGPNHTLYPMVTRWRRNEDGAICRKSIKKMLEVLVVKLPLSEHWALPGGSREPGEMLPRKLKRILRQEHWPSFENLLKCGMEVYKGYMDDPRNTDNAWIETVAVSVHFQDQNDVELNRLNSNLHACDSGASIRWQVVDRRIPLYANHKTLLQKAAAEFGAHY
smiles,measurement,setting,value
COc1ccc(C[C@H](N)C(=O)N[C@H]2[C@@H](O)[C@H](n3cnc4c(N(C)C)ncnc43)O[C@@H]2CO)cc1 [puromycin],effect on nuclear OAADPr-metabolizing activity,[1],no effect
same,"effect on TRPM2 channel activity, compound alone","TRPM2 channel; 100 μM puromycin alone, data not shown",no affect
same,enhancement of OAADPr gated TRPM2 channel activity,TRPM2 channel; 125-250 μM puromycin in the patch pipette with OAADPr,no significant enhancement
same,puromycin-induced cell death in Ca2+-free media,"[2]; Ca2+ removed (5 mM EGTA) before puromycin 0-500 μM, 6 h",completely blocked
same,"puromycin-dependent cell death, TRPM2 not induced",[2]; TRPM2 expression not induced by tet,nearly complete protection
same,"puromycin-dependent cell death, TRPM2 not induced, highest level","[2]; not induced by tet, 50 μM puromycin",Some cell death
same,cell death following puromycin treatment,"[2]; tet-induced TRPM2 expression, as little as 5 μM, dose-dependence up to 50 μM, 16 h",profound sensitivity to cell death
